Target: T1, MASTL kinase (Microtubule-associated serine/threonine kinase-like; Great wall kinase) (Homo sapiens, UniProt Q96GX5)
T1 sequence (Q96GX5 1-879): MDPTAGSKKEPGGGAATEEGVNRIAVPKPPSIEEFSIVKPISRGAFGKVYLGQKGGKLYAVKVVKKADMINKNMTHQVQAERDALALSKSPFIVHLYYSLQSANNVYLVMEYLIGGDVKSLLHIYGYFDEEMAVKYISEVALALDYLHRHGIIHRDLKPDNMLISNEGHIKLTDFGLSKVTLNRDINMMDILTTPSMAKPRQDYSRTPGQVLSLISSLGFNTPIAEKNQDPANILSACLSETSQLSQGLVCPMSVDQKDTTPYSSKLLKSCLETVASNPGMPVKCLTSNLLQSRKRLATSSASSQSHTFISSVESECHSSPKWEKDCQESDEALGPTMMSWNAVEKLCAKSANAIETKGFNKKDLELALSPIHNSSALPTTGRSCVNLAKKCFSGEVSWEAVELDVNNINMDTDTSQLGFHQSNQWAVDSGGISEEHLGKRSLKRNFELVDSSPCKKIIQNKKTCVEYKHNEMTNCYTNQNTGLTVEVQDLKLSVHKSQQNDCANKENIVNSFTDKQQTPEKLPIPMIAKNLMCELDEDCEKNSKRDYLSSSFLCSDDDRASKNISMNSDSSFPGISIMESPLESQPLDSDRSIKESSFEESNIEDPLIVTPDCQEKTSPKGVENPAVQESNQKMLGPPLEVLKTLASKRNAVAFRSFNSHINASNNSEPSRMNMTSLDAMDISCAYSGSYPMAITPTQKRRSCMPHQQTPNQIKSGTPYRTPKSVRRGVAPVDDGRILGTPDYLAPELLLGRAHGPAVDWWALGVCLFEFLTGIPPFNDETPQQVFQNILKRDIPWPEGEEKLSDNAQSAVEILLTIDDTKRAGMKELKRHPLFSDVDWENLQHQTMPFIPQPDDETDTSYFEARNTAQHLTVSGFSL
Test: ADP-Glo luminescent in vitro kinase assay
Assay type: biochemical

Row | SMILES | EC50 [µM]
1 | Cn1cc(C2=C(c3cn(C4CCN(Cc5ccccn5)CC4)c4ccccc34)C(=O)NC2=O)c2ccccc21 [Enzastaurin] | 17.1
2 | CC(=O)c1c(C)c2cnc(Nc3ccc(N4CCNCC4)cn3)nc2n(C2CCCC2)c1=O [Palbociclib] | 10.5
